Consider 1 compound from patent US4542123A (Massachusetts Institute of Technology, priority 1982, dated 1985).

Data set [1] in a line: Brain and serum tyrosine in fasted rats given tyrosine alone or tyrosine and glucose (Example III, Table 2). The class given is in vivo, Sprague-Dawley rats. Particulars: tyrosine 100 mg/kg alone; 90 min.
Data set [2] can be described thus: in vivo. Particulars: rat, po, 100 mg/kg.
Data set [3] is described as follows: Brain and plasma tyrosine ratios in fasted rats, tyrosine and glucose given concurrently (Example II, second set). The conditions noted are these: rat, brain, po, 100 mg/kg.

For `N[C@@H](Cc1ccc(O)cc1)C(=O)O` [Tyrosine, tyrosine], in data set [1], the “Brain Tyrosine” value came to 23.0 ± 2.2 µg/mL, the “Brain/Serum (tyrosine)” value was 1.02 ± 0.1 and the “Serum Tyrosine/Serum LNAA” value is recorded as “.304”. The compound further displayed a Kp at 1 h in data set [2] (brain) of 0.78. The same compound gave a concentration at 1 h in data set [2] (serum) of 20.9 µg/mL. Also, the Kp at […] in data set [3] is 0.77.
